{"source": "patent US20260184712A1", "about": "“Heterocyclic Compounds as ENT Inhibitors and Compounds for Use in the Treatment of Cancers” (iTeos Belgium SA, priority 2022, published 2026)", "key": {"human ENT1 [1]": {"target": "T1, human ENT1 (Homo sapiens, UniProt Q99808)", "T1 construct": "JAR cells expressing ENT1 were purchased from ATCC; host or cells: JAR cells", "T1 sequence (Q99808 1-456)": "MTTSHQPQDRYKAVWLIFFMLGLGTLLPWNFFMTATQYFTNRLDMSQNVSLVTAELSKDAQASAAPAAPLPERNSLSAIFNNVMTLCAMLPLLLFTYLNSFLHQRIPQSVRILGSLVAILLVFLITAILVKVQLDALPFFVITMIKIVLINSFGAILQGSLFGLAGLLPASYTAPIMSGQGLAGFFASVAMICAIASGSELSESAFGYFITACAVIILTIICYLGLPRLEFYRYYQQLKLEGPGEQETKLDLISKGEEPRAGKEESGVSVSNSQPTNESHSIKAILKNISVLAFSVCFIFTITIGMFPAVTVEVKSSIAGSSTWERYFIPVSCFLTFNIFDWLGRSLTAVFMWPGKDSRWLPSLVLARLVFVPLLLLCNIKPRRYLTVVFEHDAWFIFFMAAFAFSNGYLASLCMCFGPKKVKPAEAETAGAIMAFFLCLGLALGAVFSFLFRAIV", "assay": "ENT1 binding assay (competition with Sahenta-DY647 on JAR cells)", "settings": "competition with SAHENTA-DY647 binding; IC50 categorized; read-out: Binding Assay IC50", "how_it_was_run": "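Whole-cell competition on JAR cells (native ENT1): 50,000 cells pre-incubated 30 min at 4 °C with compound in HBSS/10 mM Hepes/0.1% BSA, then 100 nM Sahenta-DY647 added for 30 min at 4 °C. After washing, fluorescence (Ex 630/Em 670 nm) read; IC50 from sigmoidal fit, averaged as pIC50.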"}, "human ENT1 [2]": {"target": "T1, human ENT1", "assay": "Uridine transport inhibition assay, ENT1-mediated uptake in MDCKII cells", "assay_type": "cell-based", "settings": "MDCKIIENT1-LV cells, probe uridine 1 μM, pre-incubation 30 min, incubation 1 min", "description": "The goal of this study was to determine the potency and selectivity of ENT1 inhibitors by measuring ENT1 and ENT2-mediated transport using an in vitro cellular uptake assay.\nHuman ENT1 and ENT2 transporters were stably expressed in Madin-Darby Canine Kidney II (MDCKII) cells via transduction. Cell lines overexpressing the relevant ENT1 or ENT2 molecules were preincubated with a dose range of the relevant compound for 30 minutes before introduction of the specific substrate at the concentration indicated in the Table assay parameters below. The transporter assay was conducted for the time specified in the Table assay parameters before the specific uptake of the substrate into the cells was quantified. Specific uptake was determined by comparing the uptake from the cells treated with the relevant compounds and the uptake by cells not overexpressing the transporter in question.\nSpecific uptake for each concentration of the test sample was normalized to the DMSO control value to generate a relative accumulation value (or relative transporter activity). Data were plotted against the log molar concentration of the test reagent used. IC50 values were generated with Prism version 9.4.1 and the following function: log(inhibitor) vs. response—Variable slope (four parameters)."}}, "data": [{"smiles": "C[C@H]1O[C@@H](n2c(NC3CCOCC3)nc3c(OCc4ccc(C#N)cc4)ncnc32)[C@H](O)[C@@H]1O", "note": "[Compound 73]", "values": [{"measurement": "IC50", "setting": "human ENT1 [1]", "value": "< 1", "unit": "nM"}, {"measurement": "IC50", "setting": "human ENT1 [2]", "value": "0.1 to 2", "unit": "nM"}]}, {"smiles": "C[C@H]1O[C@@H](n2cnc3c(N4CCc5ccc([N+](=O)[O-])cc5C4)ncnc32)[C@H](O)[C@@H]1O", "note": "[Compound 151]", "values": [{"measurement": "IC50", "setting": "human ENT1 [1]", "value": "1 to 20", "unit": "nM"}, {"measurement": "IC50", "setting": "human ENT1 [2]", "value": "0.1 to 2", "unit": "nM"}]}, {"smiles": "C[C@H]1O[C@@H](n2cnc3c(OCc4ccc([N+](=O)[O-])cc4)ncnc32)[C@H](O)[C@@H]1O", "note": "[Compound 166]", "values": [{"measurement": "IC50", "setting": "human ENT1 [1]", "value": "20 to 500", "unit": "nM"}, {"measurement": "IC50", "setting": "human ENT1 [2]", "value": "0.1 to 2", "unit": "nM"}]}, {"smiles": "C[C@H]1O[C@@H](n2cnc3c(OCc4ccc(OC(F)F)cc4)ncnc32)[C@H](O)[C@@H]1O", "note": "[Compound 173]", "values": [{"measurement": "IC50", "setting": "human ENT1 [1]", "value": "20 to 500", "unit": "nM"}, {"measurement": "IC50", "setting": "human ENT1 [2]", "value": "0.1 to 2", "unit": "nM"}]}, {"smiles": "C[C@H]1O[C@@H](n2c(N[C@H]3CCC(F)(F)C3)nc3c(OCc4ccc(C#N)cc4)ncnc32)[C@H](O)[C@@H]1O", "note": "[Compound 82]", "values": [{"measurement": "IC50", "setting": "human ENT1 [1]", "value": "1 to 20", "unit": "nM"}, {"measurement": "IC50", "setting": "human ENT1 [2]", "value": "0.1 to 2", "unit": "nM"}]}, {"smiles": "C[C@H]1O[C@@H](n2cnc3c(SCc4ccc([N+](=O)[O-])cc4)ncnc32)[C@H](O)[C@@H]1O", "note": "[Compound 147]", "values": [{"measurement": "IC50", "setting": "human ENT1 [1]", "value": "1 to 20", "unit": "nM"}, {"measurement": "IC50", "setting": "human ENT1 [2]", "value": "< 0.1", "unit": "nM"}]}, {"smiles": "C[C@H]1O[C@@H](n2c(NC3CCOCC3)nc3c(OCc4ccc(OC(F)F)nc4)ncnc32)[C@H](O)[C@@H]1O", "note": "[Compound 75]", "values": [{"measurement": "IC50", "setting": "human ENT1 [1]", "value": "< 1", "unit": "nM"}, {"measurement": "IC50", "setting": "human ENT1 [2]", "value": "0.1 to 2", "unit": "nM"}]}, {"smiles": "C[C@H]1O[C@@H](n2c(NC3CCCC3)nc3c(OCc4ccc([N+](=O)[O-])cc4)ncnc32)[C@H](O)[C@@H]1O", "note": "[Compound 6]", "values": [{"measurement": "IC50", "setting": "human ENT1 [1]", "value": "< 1", "unit": "nM"}, {"measurement": "IC50", "setting": "human ENT1 [2]", "value": "0.1 to 2", "unit": "nM"}]}, {"smiles": "C[C@H]1O[C@@H](n2c(NC3CCC(O)CC3)nc3c(OCc4ccc([N+](=O)[O-])cc4)ncnc32)[C@H](O)[C@@H]1O", "note": "(some centres unmarked) [Compound 28]", "values": [{"measurement": "IC50", "setting": "human ENT1 [1]", "value": "< 1", "unit": "nM"}, {"measurement": "IC50", "setting": "human ENT1 [2]", "value": "0.1 to 2", "unit": "nM"}]}, {"smiles": "OCCOC[C@H]1O[C@@H](n2cnc3c(OCc4ccc(OC(F)(F)F)cc4)ncnc32)[C@H](O)[C@@H]1O", "note": "[Compound 175]", "values": [{"measurement": "IC50", "setting": "human ENT1 [1]", "value": "20 to 500", "unit": "nM"}, {"measurement": "IC50", "setting": "human ENT1 [2]", "value": "0.1 to 2", "unit": "nM"}]}]}
